# Assay results published in patent US20250228242A1 (priority 2021, published 2025).
# Structures can show the parent of a compound that is named as a salt.
# Columns and labels:
# Albugo laibachii [1] = assay: Albugo laibachii on A. thaliana, syringe infiltration of compound, visual scoring of disease severity; type: in vivo; conditions: in Arabidopsis thaliana, 100 μM in 1% DMSO syringe infiltrated into adult A. thaliana, visually scored at nine dpi, read-out: A. laibachii Inhibitory effect
# Experimental: A. thaliana seeds were stratified on moist soil (Einheitserde type A240, Stender, Germany) for seven days at 4° C. in darkness, before transfer into growth chambers with short day conditions (10 h light, 14 h darkness, 23/20° C., 60% humidity). After three weeks, seedlings were singularised and grown for three weeks further. After six weeks, A. thaliana plants were used for experiments and after infection they were transferred into SANYO (Panasonic MLR-352, Japan) growth cabinets (10 h light, 14 h darkness, 22/16° C.). Potato plants were grown from tubers by covering them with soil (Einheitserde type A240, Stender, Germany). The leaves of adult plants (˜4-6 weeks old) were cut off and kept in a moist environment for infection assays.
# For regular Albugo sp. infections A. thaliana Ws-0 was sprayed with an Albugo sp. conidiospores solution. These spore solutions were prepared by harvesting sporulating leaf material at 14 days post infection (dpi) and adding water for rehydration of the spores. Spore solutions were hold on ice for ˜1 h, before filtering through miracloth (Merck Millipore, Germany) to remove dirt. Spores were counted and the solutions diluted to 22.2×10^4 conidiospores/ml. Albugo sp. spore solutions were sprayed uniformly on A. thaliana leaves (4.5 ml per six plants) using an airbrush gun. During spraying, plants were placed in a plastic bag and afterwards transferred into a cold room to incubate at 4° C. in darkness (˜16 h). The next morning, plants were transferred into plant growth cabinets, but left in clear bags to keep humidity high, which supports Albugo sp. infections. ˜24 h later plants were unbagged and further incubated under normal plant growth conditions.
# Afterwards, the plants were kept in the lab for ˜1 h to let the leaves equilibrate again. The infiltrated plants were infected with Albugo sp., following the above-mentioned protocol. At 7 dpi, infiltrated leaves were phenotypically scored and harvested. The samples were frozen in liquid nitrogen and stored at −80° C. until DNA extraction for growth quantification via qPCR. For experiment 4, A. candida spore solutions were prepared as before and mixed with 10 mM stock solution of the test compound (100 μM end conc.). The mixture of spore solution and test compound was sprayed and incubated as for experiment 2 and 3.
# • Fungicidal activity against other oomycetes was tested using isolates of the obligate biotrophic pathogen genus Albugo on Arabidopsis thaliana. The test compounds, 100 μM in 1% DMSO, were syringe infiltrated into adult A. thaliana and subsequently sprayed with aqueous spore solutions of Albugo laibachii or A. candida. In primary screenings, disease severity was visually screened and scored at nine days post infection (dpi) (Table 2+3).
# [2] = system: Pseudomonas syringae pv. tomato (Pto) DC3000; assay: Bacterial liquid culture growth curves (OD600), Pto DC3000; conditions: 18.5 h, read-out: Absolute growth rate relative to mock control, Pto DC3000
# Rhodococcus sp. = assay: Bacterial liquid culture growth curves (OD600), Rhodococcus sp.; conditions: 18.5 h, read-out: Absolute growth rate relative to mock control, Rhodococcus sp.
# Phytophthora infestans = assay: whole plant or invertebrate; type: in vivo; conditions: in Solanum tuberosum, 120 h, read-out: P. infestans % inhibition
# Albugo candida = Albugo candida growth on A. thaliana after syringe infiltration, quantified via qPCR; type: in vivo; conditions: for inhibition at 100 µM: Albugo candida, in Arabidopsis thaliana, qPCR at 7 dpi, A. thaliana; for inhibition of A. candida growth (in words): Table 4, qPCR at 7 dpi
# Albugo laibachii [3] = assay: Albugo laibachii growth on A. thaliana after syringe infiltration, quantified via qPCR; type: in vivo; conditions: for inhibition at 100 µM: Albugo laibachii, in Arabidopsis thaliana, qPCR at 7 dpi, A. thaliana
# P. infestans = assay: whole plant or invertebrate; type: in vivo; conditions: Phytophthora infestans, in Solanum tuberosum, read-out: P. infestans % inhibition
Compound,inhibition at 100 µM (Albugo laibachii [1]) [%],activity at 100 µM [2] [%],activity at 100 µM (Rhodococcus sp.) [%],inhibition at 100 µM (Phytophthora infestans) [%],other results
"Cn1nc(-c2ccc3c(c2)OCO3)cc1-c1cccc(Br)c1 [Compound 41, 3-(1,3-Benzodioxol-5-yl)-5-(3-bromophenyl)-1-methyl-1H-pyrazole]",30 to 70,106,62,–,–
"Oc1cc(-c2cc(-c3cc(Br)cc(Br)c3)[nH]n2)cc(O)c1O [Compound 6, 5-(3,5-Dibromophenyl)-3-(3,4,5-trihydroxyphenyl)-1H-pyrazole]",> 70,73,1,–,–
"Nc1ccc(-c2cc(-c3cccc(Br)c3)[nH]n2)cc1 [Compound 40, 3-(4-Aminophenyl)-5-(3-bromophenyl)-1H-pyrazole]",> 70,91,-1,–,–
"Ic1ccc(-c2cc(-c3ccc4c(c3)OCO4)n[nH]2)cc1 [Compound 15, 3-(1,3-Benzodioxol-5-yl)-5-(4-iodophenyl)-1H-pyrazole]",–,–,–,56,–
"COc1ccc(-c2cc(-c3ccc(Cl)cc3)n[nH]2)cc1 [Compound 31, 3-(4-Chlorophenyl)-5-(4-methoxyphenyl)-1H-pyrazole]",–,–,–,77,–
"COc1ccc(-c2cc(-c3ccc(O)cc3)[nH]n2)cc1OC [Compound 32, 3-(3,4-Dimethoxyphenyl)-5-(4-hydroxyphenyl)-1H-pyrazole]",–,90,10,77,–
"Oc1ccc(-c2cc(-c3cccc(F)c3)[nH]n2)cc1O [Compound 16, 3-(3,4-Dihydroxyphenyl)-5-(3-fluorophenyl)-1H-pyrazole]",30 to 70,66,0,–,–
"Oc1ccc(-c2cc(-c3cccc(C(F)(F)F)c3)[nH]n2)cc1O [Compound 12, 3-(3,4-Dihydroxyphenyl)-5-[3-(trifluoromethyl)phenyl]-1H-pyrazole]",–,104,-1,76,–
"COc1ccc(-c2cc(-c3cccc(Br)c3)[nH]n2)cc1OC [Compound 29, 5-(3-Bromophenyl)-3-(3,4-dimethoxyphenyl)-1H-pyrazole]",30 to 70,88,62,–,–
"Brc1ccccc1-c1cc(-c2ccc3c(c2)OCO3)n[nH]1 [Compound 10, 3-(1,3-Benzodioxol-5-yl)-5-(2-bromophenyl)-1H-pyrazole]",–,111,24,82,inhibition at 100 µM (Albugo candida): 68%; inhibition of A. candida growth (in words) (Albugo candida): strong inhibition; inhibition at 100 µM (Albugo laibachii [3]): 36%
"Fc1cccc(-c2cc(-c3ccc4c(c3)OCO4)n[nH]2)c1 [Compound 7, 3-(1,3-Benzodioxol-5-yl)-5-(3-fluorophenyl)-1H-pyrazole]",30 to 70,98,14,–,–
"Brc1ccc(-c2cc(-c3ccc4c(c3)OCO4)n[nH]2)cc1 [Compound 38, 3-(1,3-Benzodioxol-5-yl)-5-(4-bromophenyl)-1H-pyrazole]",> 70,–,–,–,"inhibition at 100 µM (Albugo candida): 53%; inhibition of A. candida growth (in words) (Albugo candida): strong inhibition; inhibition at 100 µM (Albugo laibachii [3]): 50%; inhibition of A. laibachii growth (in words) (Albugo laibachii [3]; Table 4, qPCR at 7 dpi, p 5 0.05): significantly inhibited"
"CN(C)c1cccc(-c2cc(-c3ccc4c(c3)OCO4)n[nH]2)c1 [Compound 14, 3-[3-(1,3-benzodioxol-5-yl)-1H-pyrazol-5-yl]-N,N-dimethylaniline]",–,100,11,71,–
"COc1cccc(-c2cc(-c3ccc4c(c3)OCO4)n[nH]2)c1 [Compound 9, 3-(1,3-Benzodioxol-5-yl)-5-(3-methoxyphenyl)-1H-pyrazole]",30 to 70,100,8,–,–
"COc1ccc(-c2cc(-c3cccc(F)c3)on2)cc1OC [Compound 20, 3-(3,4-Dimethoxyphenyl)-5-(3-fluorophenyl)isoxazole]",–,–,–,21,–
"CN(C)c1ccc(-c2cc(-c3cccc(Br)c3)[nH]n2)cc1 [Compound 13, 5-(3-Bromophenyl)-3-[4-(dimethylamino)phenyl]-1H-pyrazole]",> 70,–,–,–,–
"Ic1cccc(-c2cc(-c3ccc4c(c3)OCO4)n[nH]2)c1 [Compound 8, 3-(1,3-Benzodioxol-5-yl)-5-(3-iodophenyl)-1H-pyrazole]",5 to 30,100,35,–,–
"Nc1ccc(-c2cc(-c3cccc(Cl)c3)[nH]n2)cc1 [Compound 39, 3-(4-Aminophenyl)-5-(3-chlorophenyl)-1H-pyrazole]",30 to 70,94,-1,–,–
"Oc1cccc(-c2cc(-c3ccc4c(c3)OCO4)n[nH]2)c1 [Compound 34, 3-(1,3-Benzodioxol-5-yl)-5-(3-hydroxyphenyl)-1H-pyrazole]",30 to 70,56,-1,–,–
"c1ccc(-c2cc(-c3ccc4c(c3)OCO4)no2)cc1 [Compound 17, 3-(1,3-Benzodioxol-5-yl)-5-phenylisoxazole]",–,–,–,13,–
"FC(F)(F)c1cccc(-c2cc(-c3ccc4c(c3)OCO4)n[nH]2)c1 [Compound 11, 3-(1,3-Benzodioxol-5-yl)-5-[3-(trifluoromethyl)phenyl]-1H-pyrazole]",5 to 30,81,110,–,–
"Oc1ccc(-c2cc(-c3ccc(O)c(O)c3)[nH]n2)cc1O [Compound 27, 3,5-Bis(3,4-Dihydroxyphenyl)-1H-pyrazole hydrobromide]",–,77,98,62,–
"Oc1ccc(-c2cc(-c3cccc(Br)c3)[nH]n2)cc1O [Compound 4, 5-(3-Bromophenyl)-3-(3,4-dihydroxyphenyl)-1H-pyrazole]",5 to 30,48,-1,–,–
"COc1ccc(-c2c[nH]c(-c3ccc(OC)c(OC)c3)n2)cc1OC [Compound 30, 2,4-Bis(3,4-dimethoxyphenyl)-1H-imidazole]",–,109,35,46,–
"Clc1cccc(-c2cc(-c3ccc4c(c3)OCO4)n[nH]2)c1 [Compound 35, 3-(1,3-Benzodioxol-5-yl)-5-(3-chlorophenyl)-1H-pyrazole]",30 to 70,85,11,–,–
"Oc1ccc(-c2noc(-c3cccc(F)c3)n2)cc1O [Compound 25, 3-(3,4-Dihydroxyphenyl)-5-(3-fluorophenyl)-1,2,4-oxadiazole]",–,105,1,79,–
"Oc1ccc(-c2cc(-c3cccc(F)c3)on2)cc1O [Compound 21, 3-(3,4-Dihydroxyphenyl)-5-(3-fluorophenyl)isoxazole]",–,93,2,70,–
"COc1ccc(-c2cc(-c3cccc(O)c3)[nH]n2)cc1OC [Compound 33, 3-(3,4-Dimethoxyphenyl)-5-(3-hydroxyphenyl)-1H-pyrazole]",–,90,6,85,inhibition at 100 µM (P. infestans): 84%
